Patent publication US9730945B2, “Diagnosis of autism spectrum disorders and its treatment with an antagonist or inhibitor of the 5-HT2c receptor signaling pathway” (Massachusetts Institute of Technology, priority 2009, dated 2017)
“Also recorded” adds a separate entry of the source.

Tested on: Pten haploinsufficient mice
Assay: Social approach behavior assay (three-chamber apparatus)
Assay type: in vivo
Conditions: female Pten haploinsufficient mice, 8 weeks of age, IP 0.3 mg/kg, 20 minutes prior to assay, quantified over 10 minutes, preliminary test
Method: FIG. 5: Effects of the 5-HT2cR antagonist SB 242084 on social approach behavior in Pten haploinsufficient mice. The mice tested were female littermates, 8 weeks of age. The mice were given an IP injection of 0.3 mg/kg of SB 242084 or vehicle, 20 minutes prior to start of the assay. A social stimulus mouse was placed in chamber 1 and an identical empty cage was placed in chamber 3. The percent time the subject mouse spent interacting with the stimulus mouse was quantified over 10 minutes. […] For vehicle treated groups, n=6; for SB 242084-treated groups, n=8. * P<0.05, ANOVA within group comparison between chamber 1 and chamber 3. In each group of bars, the order is: left bar=chamber 1, middle bar=chamber 2, right bar=chamber 3.
A mouse was placed in an open top acrylic box (24″L×12″W×12″H) with opaque walls. The box was divided into three (8″L×12″W) chambers separated by opaque acrylic panels with holes providing passage between chambers. For reference, the chambers were numbered, from left to right 1, 2, and 3. […] The resulting video was scored with computer assistance by importing into ImageJ software (http://rsb.info.nih.gov/ij/), where each chamber was defined as a region of interest using a script written in-house, and the number of frames in which the mouse was in each region of interest was quantified. […]

Cc1cc2c(cc1Cl)N(C(=O)Nc1ccc(Oc3cccnc3C)nc1)CC2 [SB 242084, 6-Chloro-5-methyl-1-[[2-(2-methylpyrid-3-yloxy)pyrid-5-yl]carbamoyl]indoline]
social approach behavior (percent time interacting with stimulus mouse, chamber 1 vs chamber 3): can offset deficits in social approach behavior; also recorded: significant preference for interacting with the stimulus mouse
